# Laboratory results from patent US20240199558A1, “2,4,6-TRISUBSTITUTED 1,3,5-TRIAZINES AS MODULATORS OF CX3CR1” (ASTRAZENECA AB, priority 2022, published 2024).
# Target: CX3CR1 (Homo sapiens (Human), UniProt P49238)
# Assay: hCX3CR1 [3H]-AZD8797 competitive binding assay (filter)
# Conditions: CHO-hCX3CR1 membranes, 2 nM [3H]-AZD8797
# Experimental: hCX3CR1 [^3H]-AZD8797 Competitive Binding Assay (Filter)
# CHO-hCX3CR1 membranes (9 μg per well) together with 2 nM [^3H]-AZD8797 and different concentrations of competitor compound were incubated in 25 mM HEPES (pH 7.4), 10 mM MgCl2, 1 mM CaCl2) and 0.5% BSA in a Corning polystyrene flat-bottom 96-well plate. The plate was incubated for 2 h at room temperature before free radioligand was separated from bound by vacuum filtration on to a Multiscreen HTS+HiFlow FB (Millipore) filter plate, using a Biomek FX (Beckman Coulter). The filter plate was washed in ice-cold 25 mM HEPES (pH 7.4), 5 mM MgCl2, 1 mM CaCl2) and 500 mM NaCl and dried at 50° C. for 1 h. Scintillation cocktail, Optiphase Supermix (PerkinElmer) was added to each well and the radioactivity was measured using a MicroBeta Trilux reader (PerkinElmer). The DMSO concentration was held constant at 1%.
# Chain of CX3CR1 (P49238 whole entry): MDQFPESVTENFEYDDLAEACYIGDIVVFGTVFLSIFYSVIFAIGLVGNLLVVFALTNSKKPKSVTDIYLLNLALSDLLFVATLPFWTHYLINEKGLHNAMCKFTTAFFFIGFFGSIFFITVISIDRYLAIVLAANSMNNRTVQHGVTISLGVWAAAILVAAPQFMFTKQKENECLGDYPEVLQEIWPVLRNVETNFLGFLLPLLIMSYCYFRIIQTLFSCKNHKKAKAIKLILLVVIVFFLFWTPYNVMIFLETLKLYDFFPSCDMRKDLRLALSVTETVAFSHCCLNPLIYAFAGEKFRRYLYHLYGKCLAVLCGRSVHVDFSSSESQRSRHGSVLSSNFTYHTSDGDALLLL
row,Structure (SMILES),IC50
1,"CC(C)C[C@H](CO)Nc1nc(CC(C)c2ccc(C3COC3)cc2)nc(NS(C)(=O)=O)n1 (stereo partly drawn) [Example 57, N-(4-(((R)-1-Hydroxy-4-methylpentan-2-yl)amino)-6-(2-(4-(oxetan-3-yl)phenyl)propyl)-1,3,5-triazin-2-yl)methanesulfonamide]",111 nM
2,"CC(C)C[C@H](CO)Nc1nc(CC(C)c2cccc(F)c2)nc(NS(C)(=O)=O)n1 (stereo partly drawn) [Example 58, N-(4-(2-(3-Fluorophenyl)propyl)-6-(((R)-1-hydroxy-4-methylpentan-2-yl)amino)-1,3,5-triazin-2-yl)methanesulfonamide]",105 nM
3,"CC(=O)Nc1ccc(C(C)Cc2nc(N[C@@H](CO)CC(C)C)nc(NS(C)(=O)=O)n2)cc1 (stereo partly drawn) [Example 59, N-(4-(1-(4-(((R)-1-Hydroxy-4-methylpentan-2-yl)amino)-6-(methylsulfonamido)-1,3,5-triazin-2-yl)propan-2-yl)phenyl)acetamide]",292 nM
4,"CC(C)C[C@H](CO)Nc1nc(CC(C)c2ccc3[nH]ccc3c2)nc(NS(C)(=O)=O)n1 (stereo partly drawn) [Example 60, N-(4-(2-(1H-Indol-5-yl)propyl)-6-(((R)-1-hydroxy-4-methylpentan-2-yl)amino)-1,3,5-triazin-2-yl)methanesulfonamide]",102 nM
5,"CC(C)C[C@H](CO)Nc1nc(CC(C)c2ccc3ncoc3c2)nc(NS(C)(=O)=O)n1 (stereo partly drawn) [Example 61, N-(4-(2-(Benzo[d]oxazol-6-yl)propyl)-6-(((R)-1-hydroxy-4-methylpentan-2-yl)amino)-1,3,5-triazin-2-yl)methanesulfonamide]",76 nM
6,"CC(C)C[C@H](CO)Nc1nc(CC(C)c2ccc3ocnc3c2)nc(NS(C)(=O)=O)n1 (stereo partly drawn) [Example 62, N-(4-(2-(Benzo[d]oxazol-5-yl)propyl)-6-(((R)-1-hydroxy-4-methylpentan-2-yl)amino)-1,3,5-triazin-2-yl)methanesulfonamide]",140 nM
7,"CC(C)C[C@H](CO)Nc1nc(CC(C)c2ccc(N=S(C)(C)=O)cc2)nc(NS(C)(=O)=O)n1 (stereo partly drawn) [Example 63, N-(4-(2-(4-((Dimethyl(oxo)-λ^6-sulfaneylidene)amino)phenyl)propyl)-6-(((R)-1-hydroxy-4-methylpentan-2-yl)amino)-1,3,5-triazin-2-yl)methanesulfonamide]",114 nM
8,"CC(C)C[C@H](CO)Nc1nc(CC(C)c2ccc(-n3ccnn3)cc2)nc(NS(C)(=O)=O)n1 (stereo partly drawn) [Example 64, N-(4-(2-(4-(1H-1,2,3-Triazol-1-yl)phenyl)propyl)-6-(((R)-1-hydroxy-4-methylpentan-2-yl)amino)-1,3,5-triazin-2-yl)methanesulfonamide]",302 nM
9,"CC(C)C[C@H](CO)Nc1nc(CC(C)c2ccc(C#N)cc2)nc(NS(C)(=O)=O)n1 (stereo partly drawn) [Example 68, N-(4-(2-(4-Cyanophenyl)propyl)-6-(((R)-1-hydroxy-4-methylpentan-2-yl)amino)-1,3,5-triazin-2-yl)methanesulfonamide]",336 nM
10,"COCc1ccc(C(C)Cc2nc(N[C@@H](CO)CC(C)C)nc(NS(C)(=O)=O)n2)cc1 (stereo partly drawn) [Example 69, N-(4-(((R)-1-Hydroxy-4-methylpentan-2-yl)amino)-6-(2-(4-(methoxymethyl)phenyl)propyl)-1,3,5-triazin-2-yl)methanesulfonamide]",830 nM
11,"Cc1ccc(C(C)Cc2nc(N[C@@H](CO)CC(C)C)nc(NS(C)(=O)=O)n2)cc1C (stereo partly drawn) [Example 70, N-(4-(2-(3,4-Dimethylphenyl)propyl)-6-(((R)-1-hydroxy-4-methylpentan-2-yl)amino)-1,3,5-triazin-2-yl)methanesulfonamide]",298 nM
12,"CC(C)C[C@H](CO)Nc1nc(CC(C)c2ccc(C(C)(F)F)cc2)nc(NS(C)(=O)=O)n1 (stereo partly drawn) [Example 71, N-(4-(2-(4-(1,1-Difluoroethyl)phenyl)propyl)-6-(((R)-1-hydroxy-4-methylpentan-2-yl)amino)-1,3,5-triazin-2-yl)methanesulfonamide]",331 nM
13,"CC(C)C[C@H](CO)Nc1nc(CC(C)c2cccc(Cl)c2)nc(NS(C)(=O)=O)n1 (stereo partly drawn) [Example 72, N-(4-(2-(3-Chlorophenyl)propyl)-6-(((R)-1-hydroxy-4-methylpentan-2-yl)amino)-1,3,5-triazin-2-yl)methanesulfonamide]",340 nM
14,"CC(=O)N(C)c1ccc(C(C)Cc2nc(N[C@@H](CO)CC(C)C)nc(NS(C)(=O)=O)n2)cc1 (stereo partly drawn) [Example 73, N-(4-(1-(4-(((R)-1-Hydroxy-4-methylpentan-2-yl)amino)-6-(methylsulfonamido)-1,3,5-triazin-2-yl)propan-2-yl)phenyl)-N-methylacetamide]",633 nM
15,"CC(C)C[C@H](CO)Nc1nc(CC(C)c2ccc(C(F)(F)F)cc2)nc(NS(C)(=O)=O)n1 (stereo partly drawn) [Example 74, N-(4-(((R)-1-Hydroxy-4-methylpentan-2-yl)amino)-6-(2-(4-(trifluoromethyl)phenyl)propyl)-1,3,5-triazin-2-yl)methanesulfonamide]",925 nM
16,"COc1cccc(C(C)Cc2nc(N[C@@H](CO)CC(C)C)nc(NS(C)(=O)=O)n2)c1 (stereo partly drawn) [Example 92, N-(4-(((R)-1-Hydroxy-4-methylpentan-2-yl)amino)-6-(2-(3-methoxyphenyl)propyl)-1,3,5-triazin-2-yl)methanesulfonamide]",112 nM
17,"CC(C)C[C@H](CO)Nc1nc(CC(C)c2c[nH]c3ncccc23)nc(NS(C)(=O)=O)n1 (stereo partly drawn) [Example 93, N-(4-(2-(1H-Pyrrolo[2,3-b]pyridin-3-yl)propyl)-6-(((R)-1-hydroxy-4-methylpentan-2-yl)amino)-1,3,5-triazin-2-yl)methanesulfonamide]",209 nM
18,"Cc1cc(C(C)Cc2nc(N[C@@H](CO)CC(C)C)nc(NS(C)(=O)=O)n2)ccn1 (stereo partly drawn) [Example 94, N-(4-(((R)-1-Hydroxy-4-methylpentan-2-yl)amino)-6-(2-(2-methylpyridin-4-yl)propyl)-1,3,5-triazin-2-yl)methanesulfonamide]",102 nM
19,"CC(C)C[C@H](CO)Nc1nc(CC(C)c2ccc(CN3CCOCC3)cc2)nc(NS(C)(=O)=O)n1 (stereo partly drawn) [Example 95, N-(4-(((R)-1-Hydroxy-4-methylpentan-2-yl)amino)-6-(2-(4-(morpholinomethyl)phenyl)propyl)-1,3,5-triazin-2-yl)methanesulfonamide]",657 nM
20,COc1ccc(C(C)Cc2nc(N[C@@H](CO)CC(C)C)nc(NS(C)(=O)=O)n2)cc1OC (stereo partly drawn) [Example 96],149 nM
21,"COc1ccc(C(C)Cc2nc(N[C@@H](CO)CC(C)C)nc(NS(C)(=O)=O)n2)c2cccnc12 (stereo partly drawn) [Example 97, N-(4-(((R)-1-Hydroxy-4-methylpentan-2-yl)amino)-6-(2-(8-methoxyquinolin-5-yl)propyl)-1,3,5-triazin-2-yl)methanesulfonamide]",90 nM
22,"CCOc1ccc(C(C)Cc2nc(N[C@@H](CO)CC(C)C)nc(NS(C)(=O)=O)n2)cc1Cl (stereo partly drawn) [Example 98, N-(4-(2-(3-Chloro-4-ethoxyphenyl)propyl)-6-(((R)-1-hydroxy-4-methylpentan-2-yl)amino)-1,3,5-triazin-2-yl)methanesulfonamide]",427 nM
23,"COc1cccc(C(C)Cc2nc(N[C@@H](CO)CC(C)C)nc(NS(C)(=O)=O)n2)c1F (stereo partly drawn) [Example 99, N-(4-(2-(2-Fluoro-3-methoxyphenyl)propyl)-6-(((R)-1-hydroxy-4-methylpentan-2-yl)amino)-1,3,5-triazin-2-yl)methanesulfonamide]",77 nM
24,"CC(C)C[C@H](CO)Nc1nc(CC(C)c2ccc3c(c2)oc(=O)n3C)nc(NS(C)(=O)=O)n1 (stereo partly drawn) [Example 100, N-(4-(((R)-1-Hydroxy-4-methylpentan-2-yl)amino)-6-(2-(3-methyl-2-oxo-2,3-dihydrobenzo[d]oxazol-6-yl)propyl)-1,3,5-triazin-2-yl)methanesulfonamide]",160 nM
25,"CC(C)C[C@H](CO)Nc1nc(CC(C)c2cccc(CN3OCCC3=O)c2)nc(NS(C)(=O)=O)n1 (stereo partly drawn) [Example 101, N-(4-(((R)-1-Hydroxy-4-methylpentan-2-yl)amino)-6-(2-(3-((3-oxoisoxazolidin-2-yl)methyl)phenyl)propyl)-1,3,5-triazin-2-yl)methanesulfonamide]",542 nM
26,"CC(C)C[C@H](CO)Nc1nc(CC(C)c2ccc(C3CCOCC3)cc2)nc(NS(C)(=O)=O)n1 (stereo partly drawn) [Example 102, N-(4-(((R)-1-Hydroxy-4-methylpentan-2-yl)amino)-6-(2-(4-(tetrahydro-2H-pyran-4-yl)phenyl)propyl)-1,3,5-triazin-2-yl)methanesulfonamide]",88 nM
27,"CC(C)C[C@H](CO)Nc1nc(CC(C)c2cccc3cccnc23)nc(NS(C)(=O)=O)n1 (stereo partly drawn) [Example 103, N-(4-(((R)-1-Hydroxy-4-methylpentan-2-yl)amino)-6-(2-(quinolin-8-yl)propyl)-1,3,5-triazin-2-yl)methanesulfonamide]",17 nM
28,CC(C)C[C@H](CO)Nc1nc(CC(C)c2cc(O)c3c(c2)CCCC3)nc(NS(C)(=O)=O)n1 (stereo partly drawn) [Example 104],38 nM
29,"CC(C)C[C@H](CO)Nc1nc(CC(C)c2cccc(C3COC3)c2)nc(NS(C)(=O)=O)n1 (stereo partly drawn) [Example 105, N-(4-(((R)-1-Hydroxy-4-methylpentan-2-yl)amino)-6-(2-(3-(oxetan-3-yl)phenyl)propyl)-1,3,5-triazin-2-yl)methanesulfonamide]",123 nM
30,"Cc1c2ccc(C(C)Cc3nc(N[C@@H](CO)CC(C)C)nc(NS(C)(=O)=O)n3)cc2nn1C (stereo partly drawn) [Example 106, N-(4-(2-(2,3-Dimethyl-2H-indazol-6-yl)propyl)-6-(((R)-1-hydroxy-4-methylpentan-2-yl)amino)-1,3,5-triazin-2-yl)methanesulfonamide]",24 nM
